# From US11229641B2, “Inhibitors of Bcl-2” (CASE WESTERN RESERVE UNIVERSITY, priority 2016, dated 2022)
# Values joined by “and” are separate entries in the source; they are usually repeats but may differ in a detail not shown here. Equal entries are not always repeated. Where no end group is shown, it is not given here.
# Tests used:
# Bfl-1 = biological target: T1, Bfl-1 (Homo sapiens, UniProt Q16548); conditions: read-out: IC50 displacing BH3 peptides; cited from earlier work
# T1 sequence (Q16548 1-175): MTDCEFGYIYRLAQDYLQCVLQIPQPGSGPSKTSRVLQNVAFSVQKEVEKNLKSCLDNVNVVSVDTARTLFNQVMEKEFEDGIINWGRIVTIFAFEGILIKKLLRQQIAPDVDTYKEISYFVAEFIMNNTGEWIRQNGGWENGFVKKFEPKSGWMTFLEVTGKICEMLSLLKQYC
# Bcl-B = biological target: T2, Bcl-B (Homo sapiens, UniProt Q9HD36); conditions: read-out: IC50 displacing BH3 peptides; cited from earlier work
# T2 sequence (Q9HD36 1-204): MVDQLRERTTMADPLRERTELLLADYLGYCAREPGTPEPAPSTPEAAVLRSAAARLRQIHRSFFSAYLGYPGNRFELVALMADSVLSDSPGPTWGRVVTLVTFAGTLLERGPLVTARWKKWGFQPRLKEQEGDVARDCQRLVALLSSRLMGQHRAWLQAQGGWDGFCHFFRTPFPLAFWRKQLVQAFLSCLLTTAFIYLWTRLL
# Bcl-XL = Bcl-XL (Homo sapiens, UniProt Q07817); conditions: read-out: IC50 displacing BH3 peptides; cited from earlier work
# Sequence of Bcl-XL (Q07817 whole entry, species assumed): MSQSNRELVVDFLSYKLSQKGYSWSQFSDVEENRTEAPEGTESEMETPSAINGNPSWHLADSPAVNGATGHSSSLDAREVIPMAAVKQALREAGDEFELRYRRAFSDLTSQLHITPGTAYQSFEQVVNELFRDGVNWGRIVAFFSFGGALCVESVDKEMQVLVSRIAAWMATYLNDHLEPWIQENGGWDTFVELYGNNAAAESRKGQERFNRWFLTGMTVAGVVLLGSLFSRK
# Jurkat cells = assay: Cytoplasmic Ca2+ elevation by digital imaging in Jurkat cells; assay type: cell-based
# Method: These compounds, along with 320 additional compounds chosen by virtual screening, were screened for hit confirmation. Also, a secondary assay for compound effect on apoptosis was performed in KMS-12-BM cells. […] Thus, a total of 39 compounds were chosen for triplicate confirmation screening. The findings are schematically summarized by means of the heat map in FIG. 5. An ID number, assigned by the chemist(s) who synthesized the compounds, is located to the left. This ID is for identification purposes only and does provide other information about the compound. Columns 1 and 2 represent caspase activity, measured after 24 hr of treatment at UCDDC, normalized to the highest caspase activity observed. Activity levels range from low, represented by the color purple, to high, represented by the color red. Considerable variation among different compounds and between the myeloma lines is observed evident. […] In addition, the same assay was used to test the sensitivity of primary human CLL cells to each compound, as summarized in lane 5. The effect of each compound on intracellular Ca^2+ concentration was measured by digital imaging and results are shown as percentage of cells responding with a significant (more than twofold above baseline) elevation of cytoplasmic Ca^2+ concentration. […] An example of Ca2^+ elevation in response to one of the compounds is illustrated in FIG. 6. […]
# BH4 domain of Bcl-2 = biological target: T3, BH4 domain of Bcl-2 (Homo sapiens, UniProt P10415); assay: Surface plasmon resonance (Biacore) binding to the BH4 domain of Bcl-2; conditions: SPR; for Kd: dose response / full binding curve
# T3 construct: borders or tags not given
# T3 sequence (P10415 6-30 limits assumed): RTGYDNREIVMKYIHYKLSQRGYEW
# From the text: The next step in compound validation was to perform surface plasmon resonance (Biacore) to test for binding to the BH4 domain of Bcl-2. […] To date, we have positive evidence of compound binding to the BH4 domain in 4 compounds tested by SPR (FIG. 8). Testing of the remaining compounds from the 14 lead compounds is in progress.
# multiple myeloma lines = assay: Cell death induction in multiple myeloma lines (MTS assay); assay type: cell-based, human
# Method: (§1) Of the compounds tested, 148 were identified as hits at 6.5 μM in the primary single-point screen with activity>30% relative to apoptosis induced by 10 μM BIRD-2 in NCI-H929 cells. These compounds, along with 320 additional compounds chosen by virtual screening, were screened for hit confirmation. Also, a secondary assay for compound effect on apoptosis was performed in KMS-12-BM cells. […] Thus, a total of 39 compounds were chosen for triplicate confirmation screening. The findings are schematically summarized by means of the heat map in FIG. 5. An ID number, assigned by the chemist(s) who synthesized the compounds, is located to the left. This ID is for identification purposes only and does provide other information about the compound. Columns 1 and 2 represent caspase activity, measured after 24 hr of treatment at UCDDC, normalized to the highest caspase activity observed. Activity levels range from low, represented by the color purple, to high, represented by the color red. Considerable variation among different compounds and between the myeloma lines is observed evident. Columns 3 and 4 in the heat map (FIG. 5) summarize results of cell death assays testing cell death induction in the same myeloma lines in the Distelhorst laboratory using the MTS assay. In addition, the same assay was used to test the sensitivity of primary human CLL cells to each compound, as summarized in lane 5. The effect of each compound on intracellular Ca^2+ concentration was measured by digital imaging and results are shown as percentage of cells responding with a significant (more than twofold above baseline) elevation of cytoplasmic Ca^2+ concentration. The choice of the Jurkat line for these Ca^2+ measurements was based on our extensive evidence that BIRD-2 binds to the BH4 domain of Bcl-2 endogenously present in this line and that disruption of Bcl-2-IP3R interaction by BIRD-2 elevates cytoplasmic Ca^2+ in this line. An example of Ca2^+ elevation in response to one of the compounds is illustrated in FIG. 6.
# primary human CLL cells [1] = assay: Cell death induction in primary human CLL cells (MTS assay); assay type: cell-based
# Method: as §1
# primary human CLL cells [2] = assay: Ca2+ elevation in primary CLL cells; assay type: cell-based
# [3] = tested on: small cell lung cancer (SCLC) cells; assay: Cytotoxicity in small cell lung cancer (SCLC) lines; assay type: cell-based
# [4] = tested on: normal human peripheral blood lymphocytes; assay: Toxicity toward normal cells; assay type: cell-based
# [5] = tested on: KMS-12-BM human myeloma cells; assay: Combination with ABT-263, cell viability by CellTiter-Glo assay; assay type: cell-based; conditions: fixed concentration ratio, at several compound concentrations, CI<1 synergistic
# From the text: Since Bcl-2 works by two distinct mechanisms to inhibit apoptosis, we investigated the possibility that 854697 and ABT-263, which selectively target each of these mechanisms, might synergistically kill cancer cells. […] Combination indices (CI) were computed at each concentration to determine whether the increased cytotoxicity is due to an additive (CI=1) or synergistic (CI<1) effect. At several compound concentrations, the CI was <1, indicating synergistic cell death induction when these agents that act by different mechanisms are combined. These findings indicate additional value in developing 854697 as a novel therapeutic agent for Bcl-2-positive malignancies.
# [6] = tested on: H2171 Small cell lung cancer (SCLC) cells; assay: BIRD-2/ABT-263 combination cytotoxicity in SCLC cells; assay type: cell-based; conditions: 24 hr, FIG. 4
# Method: FIG. 4 is a graph illustrating BIRD-2/ABT-263 synergism. H2171 Small cell lung cancer (SCLC) cells treated from 24 hr with 5 μM BIB1 and 39 nM ABT-263 alone or together.
# [7] = tested on: human myeloma cell lines (HMCLs); assay: Apoptosis induction in human myeloma cell lines (HMCLs); assay type: cell-based; conditions: including two lines resistant to ABT-737, ABT-263 and ABT-199
# From the text: Furthermore, one of the BIRD-2-sensitive lines, NCI-H929, corresponds to a multiple molecular subgroup that is resistant to BH3-mimetic agents and belongs to a poor prognosis category associated with chromosomal translocation. Thus, although BH3-mimetic agents represent a major advance in cancer treatment, resistance to these agents occurs and limits their efficacy, not only in multiple myeloma but other lymphoid malignancies as well. The resistance problem is not unique to HMCLs, but is illustrated by studies of ABT-737 and ABT-199 in primary MM cells where resistance was detected in more than half of primary patient samples tested. Therefore, these findings indicate the potential therapeutic importance of targeting both of Bcl-2's anti-apoptotic mechanisms. Adding to the potential value of targeting Bcl-2-IP3R interaction for treatment of multiple myeloma is the evidence reported here of synergistic activity when combined with chemotherapeutic agents typically employed in multiple myeloma treatment, and with ABT-263 and ABT-199.
molecule,measurement,setting,value
"Cc1cc2c(C(C)C)c(O)c(O)c(C=O)c2c(O)c1-c1c(C)cc2c(C(C)C)c(O)c(O)c(C=O)c2c1O [Gossypol, 1,6,7,1′,6′,7′-Hexahydroxy-5,5′-diisopropyl-3,3′-dimethyl-[2,2′]binaphthalenyl-8,8′-dicarbaldehyde]",IC50,Bfl-1,~0.5 µM
same,IC50,Bcl-B,~0.5 µM
same,IC50,Bcl-XL,~0.5 µM
"COc1ccc2c(c1)CC[C@@H]1[C@@H]2CC[C@]2(C)[C@@H](NCCCCCCN3C(=O)C=CC3=O)CC[C@@H]12 [U73122, reference compound]",effect on 854697-induced Ca2+ elevation,Jurkat cells; Jurkat cells pretreated 30 min with U73122,completely blocked
O=C(/C=C/c1ccc(Cl)c(Cl)c1)NN1CCOC1=O [compound 96505],binding to the BH4 domain of Bcl-2,BH4 domain of Bcl-2,bind to the BH4 domain of Bcl-2
same,Kd,BH4 domain of Bcl-2,24 µM
same,cell death induction,multiple myeloma lines,inducing cell death
same,cell death induction,primary human CLL cells [1],inducing cell death
CSc1c(C#N)c(N)nc(SCC(=O)c2ccc(OC(F)F)cc2)c1C#N [compound 197392],binding to the BH4 domain of Bcl-2,BH4 domain of Bcl-2,bind to the BH4 domain of Bcl-2
same,cell death induction,multiple myeloma lines,inducing cell death
same,cell death induction,primary human CLL cells [1],inducing cell death
CN(C)C(=O)OCC(Cc1ccc2ccccc2c1)N1CCN(C(=O)C(N)Cc2ccc(F)cc2)C(CO)C1 (centres unmarked) [compound 854697],Ca2+ elevation,primary human CLL cells [2],induces Ca^2+ elevation
same,binding to the BH4 domain of Bcl-2,BH4 domain of Bcl-2,bind to the BH4 domain of Bcl-2
same,Kd,BH4 domain of Bcl-2,5.6 µM and 5.7 µM and 5.71 µM
same,killing of small cell lung cancer cells,[3],kills small cell lung cancer cells
same,toxic activity toward normal cells,[4],does not have toxic activity toward normal cells
same,cell death induction,multiple myeloma lines,inducing cell death
same,Ca2+ elevation,Jurkat cells; Jurkat cells,inducing IP3R-mediated Ca^2+ elevation
same,cell death induction,primary human CLL cells [1],inducing cell death
same,Combination index (CI) with ABT-263,[5],< 1
RKKRRQRRRGGNVYTEIKCNSLLPLAAIVRV [BIRD-2],selective cytotoxicity,[3]; 15 SCLC lines treated,greater than two-fold selective cytotoxicity in 11 of the lines
same,cytotoxicity in combination with ABT-263,[6],synergistic cytotoxicity
same,apoptosis induction,[7],induces apoptosis
